# Tests used:
# Masugi nephritis rabbits = assay: Masugi nephritis in rabbits: clearance of sheep anti-rabbit renal cortex IgG antibody (glomerular immunofluorescence); format: in vivo; conditions: saline treatment 8.7 ± 0.9
# Method: Before the establishment of a disease state in the rabbits, measurements of serum BUN, creatinine, and urine protein over 24 hours were taken for each rabbit. If there was no abnormality in these measurements, the Masugi nephritis model was established in experimental rabbits by intravenous injection of sheep anti-rabbit renal cortex antiserum via the auricular vein, 0.5 ml per injection, one injection every 30 minutes, for a total of 4 injections per rabbit. The normal healthy (control) rabbit group was injected with saline in the same manner. Intravenous administration of the test substances via the auricular vein was started on the day after the injection of the antiserum, once per day, 1 ml per injection, for 30 consecutive days.
# For observation of the effects of peptides on the clearance of sheep anti-rabbit renal cortex IgG antibody from Masugi nephritis rabbits, on the day after the last test substance administration, the rabbits were sacrificed by suffocation and the right kidney was extirpated, freeze-edged and then immunofluorescently stained for the presence of sheep IgG. The fluorescence-positive area of each glomerulus was counted. Thirty glomeruli per rabbit were examined and the average positive area per glomerulus was calculated.
# Statistical significance was determined by the t-test of the SPSS software.
# Heymann nephritis rats = assay: Heymann nephritis in rats: 24 hr urine protein; format: in vivo, Wistar rats
# Method: 20 healthy Wistar rats were randomized into two groups: peptide (200 μg/kg/day) and saline treatment (2 ml/day). Two ml of antigen were intraperitoneally injected to each rat, once every two weeks, for a total of 5 rounds of injection. Test substance administration by intraperitoneal injection was started on the day after the third immunization, once per day until the end of the experiment.
# Quantification of uriner protein began at the third week of model establishment. A urine sample was collected from each rat over a 24 hour period once every […] the urine protein content quantified by the sulfosalicylic acid method.
# Sample values were compared by t-test using SPSS software.
substance,measurement,setting,value
PLNPK [CMS-010.26],Positive area count/glomerulus,Masugi nephritis rabbits; 58.5 μg/kg/day i.v. 30 days,6.3 ± 1.4
same,Positive area count/glomerulus,Masugi nephritis rabbits; 107.3 μg/kg/day i.v. 30 days,5.6 ± 1.2
same,24 hr. urine protein concentration Week 3,"Heymann nephritis rats; 200 μg/kg/day i.p., Week 3, saline treatment 4.1 ± 1.3",6.2 ± 2.3 mg/dL
same,24 hr. urine protein concentration Week 5,"Heymann nephritis rats; 200 μg/kg/day i.p., Week 5, saline treatment 3.1 ± 0.8",3.1 ± 1.4 mg/dL
same,24 hr. urine protein concentration Week 7,"Heymann nephritis rats; 200 μg/kg/day i.p., Week 7, saline treatment 10.9 ± 2.8",3.9 ± 1.6 mg/dL
same,24 hr. urine protein concentration Week 9,"Heymann nephritis rats; 200 μg/kg/day i.p., Week 9, saline treatment 12.6 ± 1.2",3.8 ± 2.2 mg/dL
same,Effect on severity of proteinuria in Heymann nephritis rats,"Heymann nephritis rats; at suitable dosage, vs saline treatment P<0.05",decrease

# Reference: patent US7718764B2, “Biologically active peptide [sequence] derivatives” (CMS Peptides Patent Holding Company Limited, priority 2004, dated 2010)
